Format in all cases: physicochemical
Data set [1] can be described thus: Dynamic surface tension of aqueous solutions, maximum-bubble pressure method. Particulars: for γ (0.1 wt % solution) (1 b/s) / γ (0.1 wt % solution) (6 b/s): 0.1 wt % solution in water. As for the experimental part:
Solutions of the citramides of Examples 1-4 in distilled water were prepared. Dynamic surface tension data were obtained using the maximum-bubble pressure method at bubble rates from 0.1 bubbles/second (b/s) to 20 b/s as described in Langmuir 1986, 2, 428-432. […] In practical terms, high bubble rates correspond to high printing speeds in lithographic printing, high spray or roller velocities in coating applications, rapid application rates for agricultural products and electronics cleaning and processing.
(§1) The solubility limits of Examples 6 and 7 were determined by intersection of the linear portion of a surface tension/In (concentration) curve with the limiting surface tension as is described in many textbooks. Since Example 8 contained insoluble material at 0.005 wt %, the solubility limit is reported as <0.005 wt %. Also, the solubility limit of ˜10 wt % reported for Example 1 is the lowest concentration at which a significant amount of insoluble material was seen. The relative efficiency of surfactants can be obtained by comparing surface tension reduction of solutions containing the same amount of different surfactants. Such data is given for 0.1 wt % solutions of the tri-alkylcitramides at 1.0 and 6.0 b/s. The limiting surface tensions at 0.1, 1, 6 and 20 b/s represent the lowest surface tensions in water which can be achieved at the given surface creation rates for a given surfactant regardless of the amount of surfactant used and is used to evaluate the effectiveness of a surfactant. These values give information about the relative ability of a surfactant to reduce surface defects under near-equilibrium conditions (0.1 b/s) through very dynamic conditions (20 b/s). Lower surface tensions would allow the elimination of defects upon application of a formulation onto lower energy surfaces.

Data set [2] can be described thus: Foam test based upon ASTM D 1173-53. Particulars: 0.1 wt % solution; for initial foam: foam height at completion of addition. As for the experimental part: The foaming properties of a 0.1 wt % solutions of the tri-alkylcitramides (N,N′,N″-tri-n-propylcitramide, N, N′, N″-tri-n-butylcitramide, N, N′, N″-tri-iso-butylcitramide and N,N′,N″-tri-iso-amylcitramide) were examined using a procedure based upon ASTM D 1173-53. In this test, a 0.1 wt % solution of the citramide surfactant was added from an elevated glass pipette to a receiver containing the same solution. The foam height was measured at the completion of the addition (“Initial Foam Height”) and the time required for the foam to dissipate at the air-liquid interface (“Time to 0 Foam”) was recorded. This test provided a comparison between the foaming characteristics of the various citramides. In general, in coatings, inks, adhesives, agricultural and electronics cleaning formulations, foam is undesirable because it complicates handling and can lead to coating and print defects, and to inefficient application of materials.

Data set [3] in a line: Solubility limit in water. Here is the method:
as §1

Setting [4] is: limiting surface tension in water, 0.1 bubbles/second.
Setting [5] is: limiting surface tension in water, 1 bubble/second.
The mark [6] stands for this setting: limiting surface tension in water, 6 bubbles/second.
Where [7] appears, read: limiting surface tension in water, 20 bubbles/second.
Where [8] appears, read: in water, from observed insoluble material.

Each structure is given as a SMILES string. Marks after values point to notes of the source that are not given here.

As to `CCCNC(=O)CC(O)(CC(=O)NCCC)C(=O)NCCC` [Example 1, N,N′,N″-tri-n-propylcitramide], the “γ (0.1 wt % solution) (1 b/s)” value in data set [1] (1 b/s) is 66.7 Dyne/cm. Further, the “γ (0.1 wt % solution) (6 b/s)” value in data set [1] (6 b/s) came out at 67.2 Dyne/cm. Moreover, in data set [1] (setting [4]), the “γ limiting (0.1 b/s)” value was 42.9 Dyne/cm. The “γ limiting (1 b/s)” value in data set [1] (setting [5]) came out at 43.1 Dyne/cm. Also, in data set [1] (setting [6]), the “γ limiting (6 b/s)” value was determined as 43.7 Dyne/cm. Also, the “γ limiting (20 b/s)” value in data set [1] (setting [7]) was determined as 44.9 Dyne/cm. Also, in data set [2], the “time to zero foam” value stood at 10 s and the initial foam is 2.8 cm. The solubility limit entry in data set [3] (in distilled water) is reported as “˜10 Weight %”. Moreover, the solubility limit in data set [3] (setting [8]) is recorded as ~10 wt %.

With `CCCCNC(=O)CC(O)(CC(=O)NCCCC)C(=O)NCCCC` [Example 2, N,N′,N″-tri-n-butylcitramide], the “γ (0.1 wt % solution) (1 b/s)” value in data set [1] (1 b/s) was 51.2 Dyne/cm. Moreover, the “γ (0.1 wt % solution) (6 b/s)” value in data set [1] (6 b/s) turned out to be 52.6 Dyne/cm. For the same compound, in data set [1] (setting [4]), the “γ limiting (0.1 b/s)” value is 43.6 Dyne/cm. In data set [1] (setting [5]), the “γ limiting (1 b/s)” value turned out to be 43.9 Dyne/cm. Moreover, in data set [1] (setting [6]), the “γ limiting (6 b/s)” value is reported as 44.6 Dyne/cm. The “γ limiting (20 b/s)” value in data set [1] (setting [7]) is listed as 46.2 Dyne/cm. In data set [2], the “time to zero foam” value came out at 9 s and the initial foam amounted to 1.3 cm. The “relative solubility in water” value in data set [3] (in comparison to N,N′,N″-tri-iso-butylcitramide) is given as “more soluble”. This compound also had a solubility limit in data set [3] (in distilled water) of 0.4 Weight %.

Consider `CC(C)CNC(=O)CC(O)(CC(=O)NCC(C)C)C(=O)NCC(C)C` [Example 3, N,N′,N″-tri-iso-butylcitramide], for which the “γ (0.1 wt % solution) (1 b/s)” value in data set [1] (1 b/s) came out at 51.8 Dyne/cm. Further, the “γ (0.1 wt % solution) (6 b/s)” value in data set [1] (6 b/s) was determined as 52.5 Dyne/cm. In addition, the “γ limiting (0.1 b/s)” value in data set [1] (setting [4]) came to 46.6 Dyne/cm. The “γ limiting (1 b/s)” value in data set [1] (setting [5]) is 46.8 Dyne/cm. Also, in data set [1] (setting [6]), the “γ limiting (6 b/s)” value turned out to be 47.3 Dyne/cm. In addition, the “γ limiting (20 b/s)” value in data set [1] (setting [7]) was determined as 48.4 Dyne/cm. Besides, in data set [2], the “time to zero foam” value was 10 s and the initial foam was found to be 1.0 cm. Further, the solubility limit in data set [3] (in distilled water) worked out at 0.2 Weight %.

As for `CC(C)CCNC(=O)CC(O)(CC(=O)NCCC(C)C)C(=O)NCCC(C)C` [Example 4, N,N′,N″-tri-iso-amylcitramide], the “γ (0.1 wt % solution) (1 b/s)” value in data set [1] (1 b/s) amounted to 63.3 Dyne/cm. Besides, in data set [1] (6 b/s), the “γ (0.1 wt % solution) (6 b/s)” value is recorded as 66.6 Dyne/cm. The “dynamic surface tension (0.1 b/s)” value in data set [1] (added to water at 5 wt %, material remained undissolved, 0.1 b/s) was 45.7 dyne/cm. Besides, the “dynamic surface tension (1 b/s)” value in data set [1] (added to water at 5 wt %, material remained undissolved, 1 b/s) is recorded as 45.9 dyne/cm. Also, the “dynamic surface tension (6 b/s)” value in data set [1] (added to water at 5 wt %, material remained undissolved, 6 b/s) is on record as 46.4 dyne/cm. The “dynamic surface tension (20 b/s)” value in data set [1] (added to water at 5 wt %, material remained undissolved, 20 b/s) came to 47.4 dyne/cm. Moreover, the “γ limiting (0.1 b/s)” value in data set [1] (limiting γ at 0.005 wt. % surfactant, 0.1 b/s) is 51.6^c Dyne/cm. Further, in data set [1] (limiting γ at 0.005 wt. % surfactant, 1 b/s), the “γ limiting (1 b/s)” value is on record as 62.6^c Dyne/cm. Moreover, the “γ limiting (6 b/s)” value in data set [1] (limiting γ at 0.005 wt. % surfactant, 6 b/s) was 67.0^c Dyne/cm. The “γ limiting (20 b/s)” value in data set [1] (limiting γ at 0.005 wt. % surfactant, 20 b/s) was 71.4^c Dyne/cm. Moreover, the “time to zero foam” value in data set [2] is 2 s. Moreover, the initial foam in data set [2] is recorded as 1.3 cm. The values for the solubility limit in data set [3] (in distilled water) and in data set [3] (setting [8]) were <0.005 Weight % and < 0.005 wt %, respectively.

Source of the values: patent publication US6399088B1, “Citric acid tri-alkylamide surfactants” (Air Products and Chemicals, Inc., priority 2000, dated 2002).
